Measured values as given in patent US20240261204A1, “ASCORBIC ACID POLYPEPTIDE DERIVATIVE, PREPARATION METHOD THEREFOR, AND APPLICATION THEREOF” (HARVEST BIOTECH CO., LTD, priority 2021, published 2024).

Tests used:
[1] = test system: human primary fibroblasts FB; assay: Synthesis test of type I collagen of fibroblast; type: cell-based; settings: 24.25 μM/10 ppm; FB supernatant, ELISA
Description: According to Anti-wrinkly and Firming Lifting Efficacy Test of Cosmetics—In vitro Test Method of Collagen I Contents with fibroblasts (Association Standard T/SHRH 032-2020), human primary fibroblasts FB were used to measure influence of each raw material group on collagen secretion of FB at a concentration (24.25 μM/10 ppm).
The plate was placed in a carbon dioxide incubator for incubation for 24 h+2 h. After incubation was finished, 200 μL of cell culture supernatant was collected per well in a 1.5 mL sterile centrifuge tube, and stored frozen in an ultra-low temperature freezer at −80° C.
Human type I collagenase immunization kit was used for ELISA detection. First, a standard was used for detection and a standard curve was plotted, and then a collagen content contained in the fibroblast supernatant diluted at an appropriate ratio was measured.

[2] = test system: Skin; assay: Efficacy for actual volunteer population (skin elasticity and skin tone, CK instrument); type: in vivo, human; settings: 20 ppm in basic cream, whole face; 14th and 28th days
Excerpt: Test population: experimental group of 15 people, placebo group of 15 people (31-54 years old, female).
Method of use: volunteers used the cream once every morning and evening, with 1 g per use, and uniformly applied the cream on the whole face.
Test instrument: CK instrument.
Test method: using cutometer and Colorimeter probes of the CK instrument to respectively perform a skin elasticity test and a skin tone test on a random side cheek of each volunteer, in a constant-temperature and constant-humidity environment, […]

[3] = test system: Blood cell; settings: Toxicology in Vitro 13 (1999) 343~354
[4] = test system: Human immortalized keratinocytes HaCaT; settings: 24.25 μM; HaCaT cells
Description: It was tested whether ATP in HaCaT cells would be affected by EAC-L-carnosine. Human immortalized keratinocytes HaCaT having been treated with the test substance were fully lysed using a certain amount of cell lysate, and centrifuged at 4° C. and 12000 g for 5 min. Supernatant was taken, and cell lysis samples of each experimental group were added to a 96-well assay plate (opaque) at 20 μL/well. ATP detection solution was further added at 100 μL/well. The plate was left to stand at room temperature for 3˜5 min. Self-luminescence intensity was detected using a full-waveband plate reader.

[5] = test system: chorioallantoic membrane
[6] = test system: Skin; settings: GB17149.2-1997
[7] = molecular target: T1, tyrosinase (Mus musculus, UniProt P11344); assay: Enzyme activity test for tyrosinase in α-MSH-induced B16 cells; type: cell-based; settings: 24.25 μM/10 ppm; inducer 0.1 μg/mL (63 nM) α-MSH
T1 construct: endogenous in cells; host or cells: B16 mouse melanoma cells
T1 sequence (P11344 19-533): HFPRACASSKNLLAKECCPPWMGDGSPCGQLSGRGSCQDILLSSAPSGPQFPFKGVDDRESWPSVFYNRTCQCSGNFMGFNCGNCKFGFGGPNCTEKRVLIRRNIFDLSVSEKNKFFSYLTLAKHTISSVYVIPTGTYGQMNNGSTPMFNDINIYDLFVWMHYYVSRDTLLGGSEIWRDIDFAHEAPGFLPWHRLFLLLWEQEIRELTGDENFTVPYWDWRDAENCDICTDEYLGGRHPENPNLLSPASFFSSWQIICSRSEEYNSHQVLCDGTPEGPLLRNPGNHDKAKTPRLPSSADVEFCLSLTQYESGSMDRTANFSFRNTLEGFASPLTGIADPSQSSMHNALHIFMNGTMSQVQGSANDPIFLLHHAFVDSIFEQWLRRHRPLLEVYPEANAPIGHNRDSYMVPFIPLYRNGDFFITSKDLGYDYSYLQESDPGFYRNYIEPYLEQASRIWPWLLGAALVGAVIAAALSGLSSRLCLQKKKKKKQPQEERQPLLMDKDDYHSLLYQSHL
Description: (§1) A method for in vitro testing whitening efficacy for B16 mouse melanoma cells was designed according to Association Standard T/SHRH 021-2019 for cosmetics whitening efficacy test, in combination with NCBI and CNKI literature research:
Cell samples having been treated by an inducer (α-MSH) and a to-be-tested substance were placed in a 96-well cell culture plate, for repeated freeze-thawing lysis. To each well 100 μL of 0.1˜0.5% levodopa was added, incubation was performed in a 37° C. cell incubator for about 2 h. the absorbancy (OD) value was measured at 450 nm wavelength.

[8] = test system: 3T3 cell; settings: GB/T 21769-2008
[9] = test system: Human immortalized keratinocytes HaCaT; settings: about 24 μM/10 ppm; UVA 15 J/cm^2
Description: The plate was placed under a specific ultraviolet device, and UVA irradiation dose was 15 J/cm^2. After the induction was completed, the drug-containing PBS was removed, and replaced with a culture medium containing the to-be-tested sample, and they were placed in a carbon dioxide incubator.
ROS detection: after 24 h, a certain amount of DCFH-DA working solution was used in replacement. Incubation was performed in the dark for 15˜30 min. Washing was performed for 3˜5 times with serum-free culture medium. 100 μL of serum-free culture medium was added.
Cell viability detection: after 24 h, a serum-free culture medium containing 10% of CCK-8 was used in replacement. After incubation of 2˜4 h in a carbon dioxide incubator, an OD value was detected at 450 nm wavelength.
HaCat with damage induced by a certain dose of UVA was chosen, to construct a keratinocyte UVA damage cell model.

[10] = test system: rabbit corneal cell SIRC; assay: SIRC corneal cell irritation test (ocular irritation SIRC model); type: cell-based
Description: Detection method was rabbit corneal cell SIRC cell viability test. To-be-tested cells were washed 1˜2 times with PBS. 100 μL of MEM complete medium and 10 μL of CCK-8 solution were added to each well, and placed in a carbon dioxide incubator, for incubation of 2˜4 h. The absorbancy (OD) value was measured at 450 nm wavelength. CCK-8 reagent can be replaced with MTT.

[11] = test system: H2O2-induced HaCaT cells; assay: Anti-aging repair test for stratum corneum cell under oxidative stress (H2O2); type: cell-based, human; settings: 24 h sample repair after H2O2 damage
Excerpt: In order to study the anti-aging repair efficacy of the raw material of the present disclosure to stratum corneum cell under oxidative stress, according to Anti-wrinkly and Firming Lifting Efficacy Test of Cosmetics—In vitro Test Method of Reactive Oxygen Species (ROS) Inhibition with keratinocytes (Association Standard T/SHRH 032-2020), oxidative damage cell models were constructed with H2O2-induced HaCaT cells, and relative proliferation rate and ROS expression quantity of the cells were respectively measured.
Washing was performed for 3˜5 times with a serum-free culture medium. 100 μL of serum-free culture medium was added.

[12] = test system: HFF human foreskin fibroblast; assay: Fibroblast anti-aging repair test under UVA photoaging stress; type: cell-based; settings: about 24 μM/10 ppm; UVA 5 J/cm^2
Description: 100 μL of serum-free culture medium was added.
HYP (cell lysate) content detection: a hydroxyproline (HYP) content detection kit was used. First, a HYP standard was used for detection and a standard curve was plotted, and then a HYP […] content contained in the fibroblast lysate diluted at an appropriate ratio was measured.
Type I collagen content detection: human type I collagenase (Col I) immunization kit was used for ELISA detection. First, a type I collagen standard was used for detection and a standard curve was plotted, and then a collagen content contained in the fibroblast supernatant diluted at an appropriate ratio was measured.

[13] = test system: B16 mouse melanoma cells; assay: Measurement of melanin content in α-MSH-induced B16 cells; type: cell-based; settings: for melanin inhibition (in words): 24.25 μM (about 10 ppm), inducer 0.1 μg/mL (63 nM) α-MSH
Description: as §1
Cell samples having been treated by the inducer (α-MSH) and the to-be-tested substance were placed in a 6-well cell culture plate. 0.5˜2 mL of cell lysate was added. The culture plate was allowed to stand in a 65° C. constant-temperature oven for 2 h. Then, after the lysate was uniformly mixed, the lysate was added to a 96-well assay plate at 150 μL/well. The absorbancy (OD) value was measured at 450 nm wavelength.

## CCOC1=C(O)C(=O)O[C@@H]1[C@@H](O)COC(=O)[C@H](Cc1c[nH]cn1)NC(=O)CCN [Example 1, 3-O-ethyl ascorbic acid-L-carnosine]
[1]
  collagen I generation versus EAC, dipeptide monomer and their mixture: more significant effect on promoting collagen generation
[2]
  ITA skin tone of the test group population: significant trend of elevation
[3]
  Test Conclusion, Blood cell hemolysis test model: pass
[4]
  improvement of ATP expression compared with blank group: 25.0%
[5]; 10 ppm solution sample
  HET-CAM irritation conclusion: non-irritant
[5]; 10 ppm solution sample, SN/T 2329-2009
  IS (HET-CAM): 0
[5]; SN329-2009
  Test Conclusion, Ocular irritation HET-CAM model: pass
[6]
  Test Conclusion, Skin patch test and trial test: pass
[7]
  tyrosinase inhibition versus EAC, L-carnosine and their physical mixture: better capability of inhibiting tyrosinase
[8]
  Test Conclusion, Phototoxicity 3T3 cell model: pass
[9]
  activity of keratinocytes after UVA irradiation: up-regulating the activity of keratinocytes after UVA irradiation
  generation of free radical ROS after UVA, HaCaT: significantly inhibiting the generation of free radical ROS
  hydroxyproline HYP after UVA, HaCaT: significantly activating collagen precursor hydroxyproline HYP
[10]; 10 ppm solution sample
  SIRC irritation conclusion: no irritant
[10]; 10 ppm solution sample, SN/T 3084.2-2014
  CSR (SIRC cell viability): 106.0
[10]; OECD 491
  Test Conclusion, Ocular irritation SIRC model: pass
[11]
  ROS expression quantity after H2O2 damage: significantly down-regulate the ROS expression quantity
  cell activity after H2O2 damage: significantly improve cell activity
[12]
  activity of fibroblasts after UVA irradiation: significantly up-regulating the activity of fibroblasts after UVA irradiation
  generation of free radical ROS after UVA, HFF: significantly inhibiting the generation of free radical ROS
  hydroxyproline HYP after UVA, HFF: significantly activating collagen precursor hydroxyproline HYP
[13]; listed as EAC-L-Carnosine
  melanin inhibition (in words): significant effect of inhibiting melanin secretion
[13]; listed as EAC-L-carnosine
  melanin inhibition (in words): significantly improved capability of inhibiting final melanin
[13]; 24.25 μM, B16 cells, α-MSH inducer
  down-regulation of melanin secretion: 27.85%
